Experimental data reported in patent publication US20240093168A1, “TRANS[…] IN CELLS OF ORGANISM INCLUDING HUMAN, T[…], AND TOOL FOR PURIFYING COMPLEX THEREOF” (KAWASAKI GAKUEN EDUCATIONAL FOUNDATION, priority 2021, published 2024).

Biological target: T1, HMG-CoA (Homo sapiens, UniProt P04035)
T1 sequence (P04035 426-888 limits assumed): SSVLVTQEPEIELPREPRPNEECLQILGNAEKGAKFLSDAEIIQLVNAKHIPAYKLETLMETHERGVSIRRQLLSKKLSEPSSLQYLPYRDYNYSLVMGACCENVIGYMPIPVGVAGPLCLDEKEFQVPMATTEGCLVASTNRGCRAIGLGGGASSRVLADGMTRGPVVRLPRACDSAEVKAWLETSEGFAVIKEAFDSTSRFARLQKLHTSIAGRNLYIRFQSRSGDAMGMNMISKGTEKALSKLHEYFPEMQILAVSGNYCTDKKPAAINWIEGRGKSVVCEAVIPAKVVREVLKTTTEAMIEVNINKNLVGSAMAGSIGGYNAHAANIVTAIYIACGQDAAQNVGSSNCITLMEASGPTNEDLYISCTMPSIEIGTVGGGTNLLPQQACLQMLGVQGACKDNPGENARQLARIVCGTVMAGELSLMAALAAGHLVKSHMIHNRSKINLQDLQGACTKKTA
Conditions: FIG. 17; S565 hydrogen bond

| SMILES | binding sites when binding to HMG-CoA |
| --- | --- |
| CC(C)c1c(C(=O)Nc2ccccc2)c(-c2ccccc2)c(-c2ccc(F)cc2)n1CC[C@@H](O)C[C@@H](O)CC(=O)O [atorvastatin] | many binding sites (S565) |
| CC(C)c1nc(N(C)S(C)(=O)=O)nc(-c2ccc(F)cc2)c1/C=C/[C@@H](O)C[C@@H](O)CC(=O)O [rosuvastatin] | many binding sites (S565) |
